In PubChem BioAssay (NCI):
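Cells were grown in 96-well plates and exposed to each compound for 48 hours at five concentrations; endpoints were interpolated linearly between bracketing concentrations, or set to the highest concentration if not reached. GI50 marks 50% less growth. TGI is the concentration that stops growth completely.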

system: HOP-62 NSCLC; assay: NCI tumour cell line growth inhibition, 48 h

Structure (SMILES)	TGI [µM]	GI50 [µM]
CC1(C)CC(=O)C(C=NC(=S)c2ccccc2)=C(O)C1	> 100	
BrC1=C(Br)C2(SCCS2)[C@H]2C[C@@H]1c1ccccc12	> 100	
C/C=C(\C)C(=O)O[C@H]1C=CC(=O)O[C@H]1CCC(=O)[C@H](C)O	48.2	22.5
N#Cc1c(NC(=O)NCc2ccccc2)sc2c1CCCCC2	> 64.2	0.706
CCCCCCNc1n[nH]c(=O)c2c1nnn2Cc1ccccc1	> 100	

system: HOP-92 NSCLC; assay: NCI tumour cell line growth inhibition, 48 h

Structure (SMILES)	TGI [µM]	GI50 [µM]
CC1(C)CC(=O)C(C=NC(=S)c2ccccc2)=C(O)C1	> 100	
BrC1=C(Br)C2(SCCS2)[C@H]2C[C@@H]1c1ccccc12	> 100	
C/C=C(\C)C(=O)O[C@H]1C=CC(=O)O[C@H]1CCC(=O)[C@H](C)O	28.3	14.3
N#Cc1c(NC(=O)NCc2ccccc2)sc2c1CCCCC2	20.9	0.547
CCCCCCNc1n[nH]c(=O)c2c1nnn2Cc1ccccc1	> 100	

system: HS 578T breast; assay: NCI tumour cell line growth inhibition, 48 h

Structure (SMILES)	TGI [µM]	GI50 [µM]
CC1(C)CC(=O)C(C=NC(=S)c2ccccc2)=C(O)C1	> 100	
C/C=C(\C)C(=O)O[C@H]1C=CC(=O)O[C@H]1CCC(=O)[C@H](C)O	39	16.2
N#Cc1c(NC(=O)NCc2ccccc2)sc2c1CCCCC2	9.33	0.314

system: HT29 colon; assay: NCI tumour cell line growth inhibition, 48 h

Structure (SMILES)	TGI [µM]	GI50 [µM]
CC1(C)CC(=O)C(C=NC(=S)c2ccccc2)=C(O)C1	> 100	
BrC1=C(Br)C2(SCCS2)[C@H]2C[C@@H]1c1ccccc12	> 100	
C/C=C(\C)C(=O)O[C@H]1C=CC(=O)O[C@H]1CCC(=O)[C@H](C)O	23.5	8.61
N#Cc1c(NC(=O)NCc2ccccc2)sc2c1CCCCC2	> 100	0.398
CCCCCCNc1n[nH]c(=O)c2c1nnn2Cc1ccccc1	> 100	

system: IGROV1 ovarian; assay: NCI tumour cell line growth inhibition, 48 h

Structure (SMILES)	TGI [µM]	GI50 [µM]
CC1(C)CC(=O)C(C=NC(=S)c2ccccc2)=C(O)C1	> 100	
BrC1=C(Br)C2(SCCS2)[C@H]2C[C@@H]1c1ccccc12	> 100	
C/C=C(\C)C(=O)O[C@H]1C=CC(=O)O[C@H]1CCC(=O)[C@H](C)O	46.8	22
N#Cc1c(NC(=O)NCc2ccccc2)sc2c1CCCCC2	> 100	0.719

system: K-562 leukemia; assay: NCI tumour cell line growth inhibition, 48 h

Structure (SMILES)	TGI [µM]	GI50 [µM]
BrC1=C(Br)C2(SCCS2)[C@H]2C[C@@H]1c1ccccc12	> 100	
C/C=C(\C)C(=O)O[C@H]1C=CC(=O)O[C@H]1CCC(=O)[C@H](C)O	22.2	4.92
N#Cc1c(NC(=O)NCc2ccccc2)sc2c1CCCCC2	> 100	0.371
CCCCCCNc1n[nH]c(=O)c2c1nnn2Cc1ccccc1	> 100	

system: KM12 colon; assay: NCI tumour cell line growth inhibition, 48 h

Structure (SMILES)	TGI [µM]	GI50 [µM]
CC1(C)CC(=O)C(C=NC(=S)c2ccccc2)=C(O)C1	> 100	
BrC1=C(Br)C2(SCCS2)[C@H]2C[C@@H]1c1ccccc12	> 100	
C/C=C(\C)C(=O)O[C@H]1C=CC(=O)O[C@H]1CCC(=O)[C@H](C)O	38.8	17.8
N#Cc1c(NC(=O)NCc2ccccc2)sc2c1CCCCC2	> 100	0.448
CCCCCCNc1n[nH]c(=O)c2c1nnn2Cc1ccccc1	> 100	

system: LOX IMVI melanoma; assay: NCI tumour cell line growth inhibition, 48 h

Structure (SMILES)	TGI [µM]	GI50 [µM]
CC1(C)CC(=O)C(C=NC(=S)c2ccccc2)=C(O)C1	> 100	
BrC1=C(Br)C2(SCCS2)[C@H]2C[C@@H]1c1ccccc12	> 100	
C/C=C(\C)C(=O)O[C@H]1C=CC(=O)O[C@H]1CCC(=O)[C@H](C)O	27.4	11.8
N#Cc1c(NC(=O)NCc2ccccc2)sc2c1CCCCC2	> 100	0.573
CCCCCCNc1n[nH]c(=O)c2c1nnn2Cc1ccccc1	> 100	

system: M14 melanoma; assay: NCI tumour cell line growth inhibition, 48 h

Structure (SMILES)	TGI [µM]	GI50 [µM]
CC1(C)CC(=O)C(C=NC(=S)c2ccccc2)=C(O)C1	> 100	
BrC1=C(Br)C2(SCCS2)[C@H]2C[C@@H]1c1ccccc12	> 100	
C/C=C(\C)C(=O)O[C@H]1C=CC(=O)O[C@H]1CCC(=O)[C@H](C)O	32.8	14.6
N#Cc1c(NC(=O)NCc2ccccc2)sc2c1CCCCC2	> 100	0.415
CCCCCCNc1n[nH]c(=O)c2c1nnn2Cc1ccccc1	> 100	

system: MALME-3M melanoma; assay: NCI tumour cell line growth inhibition, 48 h

Structure (SMILES)	TGI [µM]	GI50 [µM]
BrC1=C(Br)C2(SCCS2)[C@H]2C[C@@H]1c1ccccc12	> 100	
C/C=C(\C)C(=O)O[C@H]1C=CC(=O)O[C@H]1CCC(=O)[C@H](C)O	32.1	15.5
N#Cc1c(NC(=O)NCc2ccccc2)sc2c1CCCCC2	> 100	0.524
CCCCCCNc1n[nH]c(=O)c2c1nnn2Cc1ccccc1	> 100	

system: MCF7 breast; assay: NCI tumour cell line growth inhibition, 48 h

Structure (SMILES)	TGI [µM]	GI50 [µM]
CC1(C)CC(=O)C(C=NC(=S)c2ccccc2)=C(O)C1	> 100	
BrC1=C(Br)C2(SCCS2)[C@H]2C[C@@H]1c1ccccc12	> 100	
C/C=C(\C)C(=O)O[C@H]1C=CC(=O)O[C@H]1CCC(=O)[C@H](C)O	21.9	7.47
N#Cc1c(NC(=O)NCc2ccccc2)sc2c1CCCCC2	> 100	0.353
CCCCCCNc1n[nH]c(=O)c2c1nnn2Cc1ccccc1	> 100	

system: MDA-MB-231 breast; assay: NCI tumour cell line growth inhibition, 48 h

Structure (SMILES)	TGI [µM]	GI50 [µM]
CC1(C)CC(=O)C(C=NC(=S)c2ccccc2)=C(O)C1	> 100	
BrC1=C(Br)C2(SCCS2)[C@H]2C[C@@H]1c1ccccc12	> 100	
C/C=C(\C)C(=O)O[C@H]1C=CC(=O)O[C@H]1CCC(=O)[C@H](C)O	32.4	16.8
N#Cc1c(NC(=O)NCc2ccccc2)sc2c1CCCCC2	13.9	0.973
CCCCCCNc1n[nH]c(=O)c2c1nnn2Cc1ccccc1	> 100	

system: MDA-MB-435; assay: NCI tumour cell line growth inhibition, 48 h

Structure (SMILES)	TGI [µM]	GI50 [µM]
CC1(C)CC(=O)C(C=NC(=S)c2ccccc2)=C(O)C1	> 100	
BrC1=C(Br)C2(SCCS2)[C@H]2C[C@@H]1c1ccccc12	> 100	
C/C=C(\C)C(=O)O[C@H]1C=CC(=O)O[C@H]1CCC(=O)[C@H](C)O	27.3	11.8
N#Cc1c(NC(=O)NCc2ccccc2)sc2c1CCCCC2	0.564	0.22
CCCCCCNc1n[nH]c(=O)c2c1nnn2Cc1ccccc1	> 100	

system: MDA-N; assay: NCI tumour cell line growth inhibition, 48 h

Structure (SMILES)	TGI [µM]
CC1(C)CC(=O)C(C=NC(=S)c2ccccc2)=C(O)C1	> 100
BrC1=C(Br)C2(SCCS2)[C@H]2C[C@@H]1c1ccccc12	> 26.2
CCCCCCNc1n[nH]c(=O)c2c1nnn2Cc1ccccc1	> 100

system: MOLT-4 leukemia; assay: NCI tumour cell line growth inhibition, 48 h

Structure (SMILES)	TGI [µM]	GI50 [µM]
CC1(C)CC(=O)C(C=NC(=S)c2ccccc2)=C(O)C1	> 100	
BrC1=C(Br)C2(SCCS2)[C@H]2C[C@@H]1c1ccccc12	> 100	
C/C=C(\C)C(=O)O[C@H]1C=CC(=O)O[C@H]1CCC(=O)[C@H](C)O	41.8	17.6
N#Cc1c(NC(=O)NCc2ccccc2)sc2c1CCCCC2	> 100	0.456
CCCCCCNc1n[nH]c(=O)c2c1nnn2Cc1ccccc1	> 100	

system: NCI-H226 lung; assay: NCI tumour cell line growth inhibition, 48 h

Structure (SMILES)	TGI [µM]
CC1(C)CC(=O)C(C=NC(=S)c2ccccc2)=C(O)C1	> 100
